Laboratory results from patent US10351559B2, “Maleate salts of a B-RAF kinase inhibitor, crystalline forms, methods of preparation, and uses therefore” (BeiGene, Ltd., priority 2015, dated 2019).
Where a name gives a salt, the structure may show the parent alone.

Key:
Experiment in all cases: HTRF KinEASE-TK kinase assay
Assay type in all cases: biochemical
[1] = molecular target: T1, WT-EGFR (Homo sapiens, UniProt P00533)
T1 construct: purchased Carna Biosciences
Procedure: (§1) Crystalline Form A* of Compound 1 Sesqui-Maleate was tested against recombinant EGFR/EPHA2/BTK (from Carna Biosciences), ITK/TEC/SRC/PDGFR-beta/TXK/FLT3/VEGFR2/RET (from Life Technologies), and HER2 (aa676-1255, recombinant protein purified from insect expression system) in HTRF KinEASE-TK assay from Cisbio Bioassays according to the manufacturer's instructions. The assay was carried out in a reaction mixture containing kinases, ATP at KM concentration, biotinylated peptide substrate (61TK0BLC, Cisbio Bioassays) and Crystalline Form A* of Compound 1 Sesqui-Maleate. […] After reaction, stop/detection solution was added according to the manufacture's instruction. The stop/detection solution contained Eu+ cryptate conjugated antiphosphotyrosine antibody (61T66kLB, CisBio Bioassays) and Streptavidin-XL665 (610SAXLB, CisBio Bioassays) in buffer containing 25 mM Tris pH7.4, 400 mM KF, 50 mM EDTA, 0.01% BSA, 0.01% Triton X-100. The TR-FRET signals (ratio of fluorescence emission at 665 nm over emission at 620 nm with excitation at 337 nm wavelength) were recorded on a PHERAstar FS plate reader (BMG Labtech) after 1 hr incubation. Phosphorylation of biotinylated peptide substrate led to the binding of both Eu+ cryptate conjugated antiphosphotyrosine antibody and streptaviding-XL665 to the biotinylated peptide. The close proximity of the donor (Eu+ cryptate) and acceptor (XL665) fluorophore led to a high degree of fluorescence resonance energy transfer from the donor fluorophore (at 620 nm) to the acceptor fluorophore (at 665 nm). The IC50 for Crystalline Form A* of Compound 1 Sesqui-Maleate was derived from fitting the dose-response % inhibition data to the four-parameter logistic model by Graphpad Prism software.

[2] = molecular target: T2, VEGFR2 (Homo sapiens, UniProt P35968)
T2 construct: purchased Life Technologies
Procedure: as §1

[3] = molecular target: T3, HER2 (aa676-1255) (Homo sapiens, UniProt P04626)
T3 construct: HER2 (aa676-1255, recombinant protein purified from insect expression system); made in house; host or cells: insect expression system
Procedure: as §1

[4] = molecular target: T4, RET (Homo sapiens, UniProt P07949)
T4 construct: purchased Life Technologies
Procedure: (§2) Crystalline Form A* of Compound 1 Sesqui-Maleate was tested against recombinant EGFR/EPHA2/BTK (from Carna Biosciences), ITK/TEC/SRC/PDGFR-beta/TXK/FLT3/VEGFR2/RET (from Life Technologies), and HER2 (aa676-1255, recombinant protein purified from insect expression system) in HTRF KinEASE-TK assay from Cisbio Bioassays according to the manufacturer's instructions. The assay was carried out in a reaction mixture containing kinases, ATP at KM concentration, biotinylated peptide substrate (61TK0BLC, Cisbio Bioassays) and Crystalline Form A* of Compound 1 Sesqui-Maleate. The kinase was incubated with Crystalline Form A* of Compound 1 Sesqui-Maleate at RT for 1 hr or 2 hr (for EGFR) and the reaction was initiated by the addition of ATP and substrate. After reaction, stop/detection solution was added according to the manufacture's instruction. The stop/detection solution contained Eu+ cryptate conjugated antiphosphotyrosine antibody (61T66kLB, CisBio Bioassays) and Streptavidin-XL665 (610SAXLB, CisBio Bioassays) in buffer containing 25 mM Tris pH7.4, 400 mM KF, 50 mM EDTA, 0.01% BSA, 0.01% Triton X-100. The TR-FRET signals (ratio of fluorescence emission at 665 nm over emission at 620 nm with excitation at 337 nm wavelength) were recorded on a PHERAstar FS plate reader (BMG Labtech) after 1 hr incubation. Phosphorylation of biotinylated peptide substrate led to the binding of both Eu+ cryptate conjugated antiphosphotyrosine antibody and streptaviding-XL665 to the biotinylated peptide. The close proximity of the donor (Eu+ cryptate) and acceptor (XL665) fluorophore led to a high degree of fluorescence resonance energy transfer from the donor fluorophore (at 620 nm) to the acceptor fluorophore (at 665 nm). The IC50 for Crystalline Form A* of Compound 1 Sesqui-Maleate was derived from fitting the dose-response % inhibition data to the four-parameter logistic model by Graphpad Prism software.

[5] = molecular target: T5, PDGFR-beta (Homo sapiens, UniProt P09619)
T5 construct: purchased Life Technologies
Procedure: as §2

[6] = molecular target: T6, ITK (Homo sapiens, UniProt Q08881)
T6 construct: purchased Life Technologies
Procedure: as §2

[7] = molecular target: T7, BTK (Homo sapiens, UniProt Q06187)
T7 construct: purchased Carna Biosciences
Procedure: as §2

[8] = molecular target: T8, TEC (Homo sapiens, UniProt P42680)
T8 construct: purchased Life Technologies
Procedure: as §2

T2 sequence (P35968 20-1356): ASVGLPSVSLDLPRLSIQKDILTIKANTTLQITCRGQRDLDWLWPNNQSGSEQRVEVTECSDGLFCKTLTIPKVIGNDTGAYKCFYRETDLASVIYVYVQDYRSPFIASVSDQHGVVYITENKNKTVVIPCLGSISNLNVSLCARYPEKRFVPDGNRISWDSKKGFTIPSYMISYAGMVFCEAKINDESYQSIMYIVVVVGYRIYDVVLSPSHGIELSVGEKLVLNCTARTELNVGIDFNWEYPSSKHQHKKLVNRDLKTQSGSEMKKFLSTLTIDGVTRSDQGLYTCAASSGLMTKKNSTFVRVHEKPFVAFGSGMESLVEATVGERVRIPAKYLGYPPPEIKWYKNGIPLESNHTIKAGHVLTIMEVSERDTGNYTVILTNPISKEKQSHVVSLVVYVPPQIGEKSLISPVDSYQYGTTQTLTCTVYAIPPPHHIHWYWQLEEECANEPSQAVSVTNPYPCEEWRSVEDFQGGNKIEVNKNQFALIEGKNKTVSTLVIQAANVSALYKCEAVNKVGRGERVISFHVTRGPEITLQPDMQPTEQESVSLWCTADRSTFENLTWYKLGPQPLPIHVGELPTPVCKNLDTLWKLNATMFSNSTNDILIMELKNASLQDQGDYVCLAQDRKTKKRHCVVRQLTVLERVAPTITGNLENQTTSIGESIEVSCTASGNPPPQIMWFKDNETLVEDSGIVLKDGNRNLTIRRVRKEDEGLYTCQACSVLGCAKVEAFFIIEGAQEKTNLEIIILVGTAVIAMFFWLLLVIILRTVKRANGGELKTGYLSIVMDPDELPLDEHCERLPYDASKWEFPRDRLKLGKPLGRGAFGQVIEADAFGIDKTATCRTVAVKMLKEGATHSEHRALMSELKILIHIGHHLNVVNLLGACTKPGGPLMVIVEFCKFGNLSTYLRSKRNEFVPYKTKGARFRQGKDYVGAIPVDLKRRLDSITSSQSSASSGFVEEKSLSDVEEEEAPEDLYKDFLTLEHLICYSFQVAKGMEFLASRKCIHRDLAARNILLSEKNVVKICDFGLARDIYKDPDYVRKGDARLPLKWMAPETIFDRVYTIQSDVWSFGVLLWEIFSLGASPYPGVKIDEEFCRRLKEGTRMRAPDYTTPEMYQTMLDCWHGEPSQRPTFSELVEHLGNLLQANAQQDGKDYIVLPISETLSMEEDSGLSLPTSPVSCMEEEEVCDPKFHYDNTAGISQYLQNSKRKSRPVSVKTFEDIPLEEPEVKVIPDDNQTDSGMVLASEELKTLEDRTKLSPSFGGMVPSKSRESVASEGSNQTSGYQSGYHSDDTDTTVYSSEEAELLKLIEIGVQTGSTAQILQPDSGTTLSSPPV
T3 sequence (P04626 676-1255): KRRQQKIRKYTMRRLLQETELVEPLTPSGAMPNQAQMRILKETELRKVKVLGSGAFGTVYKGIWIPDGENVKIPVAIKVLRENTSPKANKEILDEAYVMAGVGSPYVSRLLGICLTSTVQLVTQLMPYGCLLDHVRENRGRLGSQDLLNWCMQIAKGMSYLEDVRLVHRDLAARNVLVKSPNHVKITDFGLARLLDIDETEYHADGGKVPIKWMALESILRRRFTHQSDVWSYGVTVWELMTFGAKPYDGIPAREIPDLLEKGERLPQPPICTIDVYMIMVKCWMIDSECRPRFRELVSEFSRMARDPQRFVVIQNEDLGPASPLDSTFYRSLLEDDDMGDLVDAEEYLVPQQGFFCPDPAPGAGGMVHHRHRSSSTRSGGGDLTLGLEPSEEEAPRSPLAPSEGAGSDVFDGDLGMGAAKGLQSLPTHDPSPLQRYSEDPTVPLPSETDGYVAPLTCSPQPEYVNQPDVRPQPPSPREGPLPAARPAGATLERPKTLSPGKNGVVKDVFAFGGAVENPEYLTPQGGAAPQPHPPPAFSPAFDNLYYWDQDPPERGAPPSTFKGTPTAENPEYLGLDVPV
T8 sequence (P42680 whole entry): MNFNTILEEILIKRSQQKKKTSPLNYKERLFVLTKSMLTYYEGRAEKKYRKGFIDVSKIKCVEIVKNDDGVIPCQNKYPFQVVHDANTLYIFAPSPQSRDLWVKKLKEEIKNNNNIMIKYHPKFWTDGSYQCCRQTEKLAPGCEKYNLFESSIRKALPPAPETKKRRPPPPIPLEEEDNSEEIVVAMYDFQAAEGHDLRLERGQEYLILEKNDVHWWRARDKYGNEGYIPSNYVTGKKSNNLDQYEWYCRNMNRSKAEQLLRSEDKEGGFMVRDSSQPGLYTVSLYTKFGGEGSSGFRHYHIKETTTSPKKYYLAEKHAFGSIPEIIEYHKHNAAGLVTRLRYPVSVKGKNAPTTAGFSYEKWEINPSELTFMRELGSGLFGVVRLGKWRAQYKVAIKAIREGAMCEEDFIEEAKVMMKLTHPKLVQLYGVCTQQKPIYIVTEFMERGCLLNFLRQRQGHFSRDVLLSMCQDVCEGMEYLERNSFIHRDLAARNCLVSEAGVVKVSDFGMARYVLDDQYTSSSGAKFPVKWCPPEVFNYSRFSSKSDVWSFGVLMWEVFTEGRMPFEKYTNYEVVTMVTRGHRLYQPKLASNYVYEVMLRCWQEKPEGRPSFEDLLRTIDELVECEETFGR
T6 sequence (Q08881 whole entry): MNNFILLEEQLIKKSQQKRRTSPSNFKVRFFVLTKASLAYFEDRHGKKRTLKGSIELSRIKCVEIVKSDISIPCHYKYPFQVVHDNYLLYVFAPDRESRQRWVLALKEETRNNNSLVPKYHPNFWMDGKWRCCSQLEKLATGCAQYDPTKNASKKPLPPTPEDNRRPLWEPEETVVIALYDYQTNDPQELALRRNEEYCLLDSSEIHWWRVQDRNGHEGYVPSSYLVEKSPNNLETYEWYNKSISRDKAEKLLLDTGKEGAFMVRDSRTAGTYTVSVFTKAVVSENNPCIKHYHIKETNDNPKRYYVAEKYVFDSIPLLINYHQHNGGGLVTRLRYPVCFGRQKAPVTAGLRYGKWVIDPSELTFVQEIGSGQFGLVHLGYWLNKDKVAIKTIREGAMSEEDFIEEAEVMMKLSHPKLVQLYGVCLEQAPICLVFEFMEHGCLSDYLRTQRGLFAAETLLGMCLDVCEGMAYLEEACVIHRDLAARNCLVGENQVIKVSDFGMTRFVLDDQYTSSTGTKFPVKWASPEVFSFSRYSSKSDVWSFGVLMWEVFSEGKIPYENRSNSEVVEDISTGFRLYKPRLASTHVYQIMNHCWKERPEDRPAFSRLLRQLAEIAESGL
T1 sequence (P00533 25-1210): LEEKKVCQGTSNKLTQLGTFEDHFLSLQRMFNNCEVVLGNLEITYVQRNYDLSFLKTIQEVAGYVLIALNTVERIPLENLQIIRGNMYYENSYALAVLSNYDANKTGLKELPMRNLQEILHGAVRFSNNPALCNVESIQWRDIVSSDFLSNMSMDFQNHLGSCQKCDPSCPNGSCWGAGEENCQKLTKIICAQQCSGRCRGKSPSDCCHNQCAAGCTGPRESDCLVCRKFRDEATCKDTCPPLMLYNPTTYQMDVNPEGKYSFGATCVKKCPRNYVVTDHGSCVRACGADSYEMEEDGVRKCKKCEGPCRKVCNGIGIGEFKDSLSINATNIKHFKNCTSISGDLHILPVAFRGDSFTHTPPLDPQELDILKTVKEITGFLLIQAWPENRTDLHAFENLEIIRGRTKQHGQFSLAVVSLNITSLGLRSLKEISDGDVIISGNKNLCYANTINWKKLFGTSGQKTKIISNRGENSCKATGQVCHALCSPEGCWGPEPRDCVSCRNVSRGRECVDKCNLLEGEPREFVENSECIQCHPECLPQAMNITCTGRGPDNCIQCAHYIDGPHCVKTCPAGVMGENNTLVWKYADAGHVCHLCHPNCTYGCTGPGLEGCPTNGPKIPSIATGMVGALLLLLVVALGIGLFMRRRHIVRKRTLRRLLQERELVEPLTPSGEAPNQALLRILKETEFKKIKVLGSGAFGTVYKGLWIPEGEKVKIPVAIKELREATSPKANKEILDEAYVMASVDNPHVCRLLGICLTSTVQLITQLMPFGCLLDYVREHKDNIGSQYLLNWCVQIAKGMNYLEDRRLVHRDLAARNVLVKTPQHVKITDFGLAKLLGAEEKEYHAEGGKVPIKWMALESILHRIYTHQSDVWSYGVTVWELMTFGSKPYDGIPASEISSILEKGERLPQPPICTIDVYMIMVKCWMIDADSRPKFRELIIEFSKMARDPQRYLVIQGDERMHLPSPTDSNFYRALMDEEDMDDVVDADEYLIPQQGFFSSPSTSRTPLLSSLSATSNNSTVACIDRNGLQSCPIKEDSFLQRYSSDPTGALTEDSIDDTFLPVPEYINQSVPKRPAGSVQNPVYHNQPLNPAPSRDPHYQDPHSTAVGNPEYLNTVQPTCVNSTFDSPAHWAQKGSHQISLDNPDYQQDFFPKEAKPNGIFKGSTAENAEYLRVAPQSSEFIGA
T7 sequence (Q06187 whole entry): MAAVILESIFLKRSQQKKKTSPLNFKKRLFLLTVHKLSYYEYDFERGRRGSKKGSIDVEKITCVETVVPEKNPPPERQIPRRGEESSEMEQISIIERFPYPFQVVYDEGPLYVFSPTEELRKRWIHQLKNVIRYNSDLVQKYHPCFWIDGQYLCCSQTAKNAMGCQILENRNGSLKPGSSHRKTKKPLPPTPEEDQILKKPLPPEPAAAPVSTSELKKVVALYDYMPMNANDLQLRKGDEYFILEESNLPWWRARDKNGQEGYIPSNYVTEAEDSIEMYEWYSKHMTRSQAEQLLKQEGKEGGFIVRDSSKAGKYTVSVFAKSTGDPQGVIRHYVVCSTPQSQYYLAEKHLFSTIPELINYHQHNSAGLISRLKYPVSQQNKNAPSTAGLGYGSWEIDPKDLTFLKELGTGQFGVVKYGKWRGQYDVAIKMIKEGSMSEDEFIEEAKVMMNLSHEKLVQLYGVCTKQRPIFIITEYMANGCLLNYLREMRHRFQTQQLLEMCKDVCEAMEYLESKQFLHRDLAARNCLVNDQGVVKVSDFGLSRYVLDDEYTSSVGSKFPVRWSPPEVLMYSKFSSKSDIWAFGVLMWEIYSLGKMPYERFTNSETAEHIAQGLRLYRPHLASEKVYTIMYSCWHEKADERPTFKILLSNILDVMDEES

With `O=C1CCc2c(Oc3ccc4c(c3)[C@@H]3[C@H](O4)[C@H]3c3nc4ccc(C(F)(F)F)cc4[nH]3)ccnc2N1` [5-(((1R,1aS,6bR)-1-(6-(trifluoromethyl)-1H-benzo[d]imidazol-2-yl)-1a,6b-dihydro-1H-cyclopropa[b]benzofuran-5-yl)oxy)-3,4-dihydro-1,8-naphthyridin-2(1H)-one sesqui-maleate salt] the “enzyme inhibition” value ([1]; EGFR) was “potently inhibits”, the IC50 ([1]; WT-EGFR, ATP at KM) was 44 nM and the “enzyme inhibition” value [2] was “potently inhibits”. The IC50 ([2]; ATP at KM) was 22 nM, the “enzyme inhibition” value [3] was “weak inhibition” and the IC50 ([3]; ATP at KM) was 2570 nM. For the same compound, the “enzyme inhibition” value [4] was “potently inhibits”, the IC50 ([4]; ATP at KM) was 18 nM and the “enzyme inhibition” value [5] was “potently inhibits”. The IC50 ([5]; ATP at KM) was 17 nM, the “enzyme inhibition” value [6] was “no inhibition” and the IC50 ([6]; ATP at KM) was greater than 10000 nM. For the same compound, the “enzyme inhibition” value [7] was “no inhibition”, the IC50 ([7]; ATP at KM) was greater than 10000 nM and the “enzyme inhibition” value [8] was “no inhibition”. It also gave an IC50 ([8]; ATP at KM) greater than 10000 nM.
